According to patent publication US9814734B2, “Bufalin liposome, preparation method therefor and application thereof” (THE FOURTH MILITARY MEDICAL UNIVERSITY, priority 2012, dated 2017):

What was measured:
lung cancer A549 cells = test: Growth inhibition on tumor cells (MTT); format: cell-based; conditions: Homo sapiens
Procedure: (§1) The cells of human cervical carcinoma Hela, lung cancer A549, gastric cancer SGC7901, liver cancer HepG2, myeloid leukemia HL-60 and colon cancer SW1116 are cultured in DMEM or RPMI 1640 medium (containing 10% inactived fetal bovine serum, 100 U·ml^−1 penicillin and 100 mg·l^−1 streptomycin) in a humidified 5% CO2 atmosphere at […]. The cells in logarithmic phase are collected, inoculated into 96-well plate at a density of 3×10^3/well (each well of 100 μl), and cultured for 24 h under 37° C., 5% CO2 and saturated humidity condition. A negative control group (culture solution) and administration groups with different concentrations are set up for the test. 1-300 nmol/1 bufalin or bufalin liposome (prepared according to the method of Example 1) is added into each culture well, followed by culturing in an incubator under 37° C., 5% CO2 and saturated humidity for 48 h, adding 20 μl of MTT solution (5 g/l) into each well, culturing for 4 h, and centrifuging. The supernatant was aspirated, and 150 μl dimethyl sulfoxide (DMSO) is added to each well and slightly shaking to dissolve crystal. The OD values are measured at 570 nm by an automatic microplate reader, and the cell growth inhibition rates are calculated according to following formula: cell growth inhibition rate/%=100−(OD value of administration group-OD value of blank control group)/(OD value of control group-OD value of bland control group)×100. IC50 (drug concentration at 50% inhibition on cell proliferation) value is calculated using mathematical method. Data are expressed as X±SEM. Statistical significance (P<0.05) for each variable is estimated by Student's t-test or ANOVA analysis.

[1] = system: colon cancer SW1116 cells; test: Growth inhibition on tumor cells (MTT); format: cell-based; conditions: Homo sapiens
Procedure: as §1

[2] = system: myeloid leukemia HL-60 cells; test: Growth inhibition on tumor cells (MTT); format: cell-based; conditions: Homo sapiens
Procedure: as §1

liver cancer HepG2 cells = test: Growth inhibition on tumor cells (MTT); format: cell-based; conditions: Homo sapiens
Procedure: as §1

[3] = system: gastric cancer SGC7901 cells; test: Growth inhibition on tumor cells (MTT); format: cell-based; conditions: Homo sapiens
Procedure: as §1

[4] = system: human cervical carcinoma Hela cells; test: Growth inhibition on tumor cells (MTT); format: cell-based; conditions: 48 h
Procedure: as §1

[5] = system: patient with liver cancer or pancreas cancer; test: Clinical tolerance of Huachasu injection (literature, Meng Z. et al.); format: in vivo, human; conditions: worked out from the Huachasu injection dose and its bufalin content
From the text: At present, a Huachasu injection, prepared by dissolving Venenum Bufonis in normal saline, has been used for the clinical treatment of cancer in China. It has been reported that the combination of gemcitabine-oxaliplatin with Huachasu can enhance the chemotherapeutic effect in the treatment of patients with advanced gallbladder cancer (Qin T J, et al. World J Gastroenterol. 2008, 14(33):5210-6). […] However, the Huachasu injection is a mixture solution of alkaloids in Venenum Bufonis, and the content of bufalin contained therein is very low due to the poor water solubility of bufalin.

[6] = Evaluation of acute toxicities in mice (LD50, Bliss method); conditions: mouse, in vivo, ip; male Balb/c mice, intraperitoneal, observed 7 days; dose as amount of bufalin; read-out: half-lethal dose (LD50)
Procedure: Male Balb/c mice (20-25 g) are purchased from the Laboratory Animal Center of Fourth Military Medical University. Bufalin is dissolved with anhydrous ethanol first, and then diluted with normal saline to 0.2 mg/ml (the final concentration of ethanol is below 1%). Bufalin liposome (prepared according to the method of Example 1) is directly dissolved in normal saline to obtain 0.2 mg/ml solution. 10 animals of each group are intraperitoneally injected with bufalin or bufalin liposome at dosages of 0.5, 1, 2, 4 and 6 mg/kg respectively (the dosage is the amount of bufalin in liposome, and the actual dosage of liposome is calculated from encapsulation efficiency). The mortality of mice, the toxic effect and any adverse reactions such as diarrhea, weight loss and behavior change are observed continuously for 7 days. The half-lethal dose (LD50) is calculated using graphical Bliss method.

C[C@]12CC[C@H](O)C[C@H]1CC[C@@H]1[C@@H]2CC[C@]2(C)[C@@H](c3ccc(=O)oc3)CC[C@]12O [bufalin, 3β,14-dihydroxy-5β, 20(22)-bufadienolide]
inhibition at 0.001 µM (lung cancer A549 cells; A549, 1 nmol/l, 48 h, read-out: Inhibition rate (%)): 2 ± 0.2% | inhibition at 0.003 µM (lung cancer A549 cells; A549, 3 nmol/l, 48 h, read-out: Inhibition rate (%)): 8.5 ± 1% | inhibition at 0.01 µM (lung cancer A549 cells; A549, 10 nmol/l, 48 h, read-out: Inhibition rate (%)): 25.3 ± 3.8% | inhibition at 0.03 µM (lung cancer A549 cells; A549, 30 nmol/l, 48 h, read-out: Inhibition rate (%)): 44.2 ± 7.1% | inhibition at 0.1 µM (lung cancer A549 cells; A549, 100 nmol/l, 48 h, read-out: Inhibition rate (%)): 52.3 ± 8.3% | inhibition at 0.3 µM (lung cancer A549 cells; A549, 300 nmol/l, 48 h, read-out: Inhibition rate (%)): 63.8 ± 7.9% | IC50 (lung cancer A549 cells; A549, 48 h): 78.8 nM | inhibition at 0.001 µM ([1]; SW 1116, SW1116, 1 nmol/l, 48 h, read-out: Inhibition rate (%)): 1.9 ± 0.3% | inhibition at 0.003 µM ([1]; SW 1116, SW1116, 3 nmol/l, 48 h, read-out: Inhibition rate (%)): 2.7 ± 0.1% | inhibition at 0.01 µM ([1]; SW 1116, SW1116, 10 nmol/l, 48 h, read-out: Inhibition rate (%)): 18 ± 3.9% | inhibition at 0.03 µM ([1]; SW 1116, SW1116, 30 nmol/l, 48 h, read-out: Inhibition rate (%)): 42.7 ± 6.3% | inhibition at 0.1 µM ([1]; SW 1116, SW1116, 100 nmol/l, 48 h, read-out: Inhibition rate (%)): 73.1 ± 8.8% | inhibition at 0.3 µM ([1]; SW 1116, SW1116, 300 nmol/l, 48 h, read-out: Inhibition rate (%)): 99.4 ± 11.6% | IC50 ([1]; SW 1116, SW1116, 48 h): 30.6 nM | inhibition at 0.001 µM ([2]; HL60, 1 nmol/l, 48 h, read-out: Inhibition rate (%)): 1.6 ± 0.1% | inhibition at 0.003 µM ([2]; HL60, 3 nmol/l, 48 h, read-out: Inhibition rate (%)): 4.4 ± 0.7% | inhibition at 0.01 µM ([2]; HL60, 10 nmol/l, 48 h, read-out: Inhibition rate (%)): 33.8 ± 6.1% | inhibition at 0.03 µM ([2]; HL60, 30 nmol/l, 48 h, read-out: Inhibition rate (%)): 52.4 ± 8% | inhibition at 0.1 µM ([2]; HL60, 100 nmol/l, 48 h, read-out: Inhibition rate (%)): 88.7 ± 9.8% | inhibition at 0.3 µM ([2]; HL60, 300 nmol/l, 48 h, read-out: Inhibition rate (%)): 98 ± 10.2% | IC50 ([2]; HL60, 48 h): 21.1 nM | inhibition at 0.001 µM (liver cancer HepG2 cells; HepG2, 1 nmol/l, 48 h, read-out: Inhibition rate (%)): 5.3 ± 2.2% | inhibition at 0.003 µM (liver cancer HepG2 cells; HepG2, 3 nmol/l, 48 h, read-out: Inhibition rate (%)): 6.1 ± 2.3% | inhibition at 0.01 µM (liver cancer HepG2 cells; HepG2, 10 nmol/l, 48 h, read-out: Inhibition rate (%)): 30.2 ± 2.9% | inhibition at 0.03 µM (liver cancer HepG2 cells; HepG2, 30 nmol/l, 48 h, read-out: Inhibition rate (%)): 49.8 ± 8.3% | inhibition at 0.1 µM (liver cancer HepG2 cells; HepG2, 100 nmol/l, 48 h, read-out: Inhibition rate (%)): 69.8 ± 7.5% | inhibition at 0.3 µM (liver cancer HepG2 cells; HepG2, 300 nmol/l, 48 h, read-out: Inhibition rate (%)): 87.7 ± 9.6% | IC50 (liver cancer HepG2 cells; HepG2, 48 h): 33 nM | inhibition at 0.001 µM ([3]; SGC-7901, 1 nmol/l, 48 h, read-out: Inhibition rate (%)): 3.1 ± 0.5% | inhibition at 0.003 µM ([3]; SGC-7901, 3 nmol/l, 48 h, read-out: Inhibition rate (%)): 3.9 ± 0.8% | inhibition at 0.01 µM ([3]; SGC-7901, 10 nmol/l, 48 h, read-out: Inhibition rate (%)): 23.7 ± 3.6% | inhibition at 0.03 µM ([3]; SGC-7901, 30 nmol/l, 48 h, read-out: Inhibition rate (%)): 45.9 ± 6.5% | inhibition at 0.1 µM ([3]; SGC-7901, 100 nmol/l, 48 h, read-out: Inhibition rate (%)): 85.6 ± 10.2% | inhibition at 0.3 µM ([3]; SGC-7901, 300 nmol/l, 48 h, read-out: Inhibition rate (%)): 97.9 ± 11.3% | IC50 ([3]; SGC-7901, 48 h): 23.5 nM | inhibition at 0.001 µM ([4]; 1 nmol/l, read-out: Inhibition rate (%)): 3.8 ± 2% | inhibition at 0.003 µM ([4]; 3 nmol/l, read-out: Inhibition rate (%)): 9.6 ± 8.2% | inhibition at 0.01 µM ([4]; 10 nmol/l, read-out: Inhibition rate (%)): 33.9 ± 4.5% | inhibition at 0.03 µM ([4]; 30 nmol/l, read-out: Inhibition rate (%)): 56.3 ± 8.2% | inhibition at 0.1 µM ([4]; 100 nmol/l, read-out: Inhibition rate (%)): 90.3 ± 10.7% | inhibition at 0.3 µM ([4]; 300 nmol/l, read-out: Inhibition rate (%)): 95.1 ± 6.9% | IC50 [4]: 17.1 nM | amount of bufalin tolerated by an adult patient every day [5]: up to 2.3 μg | LD50 at 7 days [6]: 2 mg/kg
